Read-outs that look alike come from different tables or passages of the source.
Experiments:
[1] = test system: metrazol-induced convulsions; assay: Suppression of Metrazol-Induced Convulsions in Adult Male Mice; format: in vivo; conditions: mouse; for ED50: Mus musculus, ip
[2] = test system: Anxiety in the Adult Male Rat; assay: Suppression of Anxiety in the Adult Male Rat (rat conflict test); format: in vivo, rats; conditions: rat; for minimal effective dose: Rattus norvegicus
Outline: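 Male rats, 48 h water- and 24 h food-deprived, trained with 200 unpunished licks, tested at expected peak drug activity. Every 20th lick punished by 0.2-s shock over a 3-min session; increase in median shocks versus concurrent vehicle assessed by one-tailed Mann-Whitney test (p<0.05), validated with a positive-control anxiolytic.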

[3] = test system: metrazol-induced convulsions; assay: Suppression of Metrazol-Induced Convulsions in Adult Male Mice; format: in vivo; conditions: mouse; for ED50: Mus musculus, po
[4] = target: benzodiazepine site of the GABA-A receptor; assay: Benzodiazepine Receptor Binding Assay (inhibition of 3H-flunitrazepam binding); conditions: read-out: GABAA Receptor Binding IC50
[5] = po, po, read-out: Rat Conflict (MED, mg/kg) po
[6] = ip, ip, read-out: Rat Conflict (MED, mg/kg) ip

Row | IC50 [4] [nM] | Compound | ED50 [1] [mg/kg] | minimal effective dose [2, 5] [mg/kg] | ED50 [3] [mg/kg] | Mouse Metrazol (ED50, mg/kg) ip [1] [mg/kg] | Rat Conflict (MED, mg/kg) po ([2]; po) [mg/kg] | Mouse Metrazol (ED50, mg/kg) po [3] | minimal effective dose [2, 6] [mg/kg]
1 | 1.98 | COCCN1C2=C(C(=O)Nc3ccccc3F)C(=O)CCN2c2ccc(C(F)(F)F)cc21 [Compound 148] | < 1 | > 10 | ~10 | – | – | – | –
2 | 1.3 | COCCN1C2=C(C(=O)Nc3ccccc3F)C(=O)CCN2c2ccccc21 [Compound 153] | < 1 | ≤ 1 | 1 | – | – | – | –
3 | 0.15 | COCN1C2=C(C(=O)Nc3ccccc3F)C(=O)CCN2c2ccc(F)cc21 [Compound 158] | 0.01 | 3 | 0.1 | – | – | – | < 10
4 | 39.2 | O=C1CCN2C(=C1C(=O)Nc1cccnc1)N(CCOCc1ccccc1)c1cc(F)ccc12 [Compound 165] | 3 | – | > 30 | – | – | – | > 7
5 | 1.17 | O=C1CCN2C(=C1C(=O)Nc1ccccc1F)N(CCO)c1cc(F)ccc12 [Compound 168, 7-Fluoro-1,2-dihydro-5-(2-hydroxyethyl)-3-oxo-N-(2-fluorophenyl)pyrido[1,2-a]benzimidazole-4-carboxamide] | < 1 | > 10 | < 30 | – | – | – | 10
6 | 1.08 | O=C1CCN2C(=C1C(=O)Nc1ccccc1F)N(CCCO)c1cc(F)ccc12 [Compound 169] | 0.1 | 10 | 0.5 | – | – | – | 10
7 | 0.21 | O=C1CCN2C(=C1C(=O)Nc1ccccc1F)N(CCCOCc1ccccc1)c1cc(F)ccc12 [Compound 170] | < 1 | > 10 | < 30 | – | – | – | < 10
8 | 1.5 | O=C1CCN2C(=C1C(=O)Nc1ccccc1F)N(CCOCc1ccccc1)c1cc(F)ccc12 [Compound 171, 7-Fluoro-1,2-dihydro-5-[2-(benzyloxy)ethyl]-3-oxo-N-(2-fluorophenyl)pyrido[1,2-a]benzimidazole-4-carboxamide] | 0.1 | 10 | 1 | – | – | – | 10
9 | 0.65 | CCOCN1C2=C(C(=O)Nc3c(F)cccc3F)C(=O)CCN2c2ccc(F)cc21 [Compound 173] | 1 | > 10 | 3 | – | – | – | > 10
10 | 2.28 | O=C1CCN2C(=C1C(=O)Nc1ccccc1F)N(CC1CCOC1)c1cc(F)ccc12 (stereo not shown) [Compound 174] | < 1 | 3 | < 3 | – | – | – | –
11 | 1.5 | O=C1CCN2C(=C1C(=O)Nc1ccccc1F)N(CC1CCCO1)c1cc(F)ccc12 (stereo not shown) [Compound 175] | < 1 | > 10 | 2 | – | – | – | –
12 | 54.8 | O=C(O)CN1C2=C(C(=O)Nc3ccccc3F)C(=O)CCN2c2ccc(F)cc21 [Compound 177] | > 1 | > 10 | > 30 | – | – | – | –

The next lines start with the compound.

Row | Compound | IC50 [4] [nM] | ED50 [1] [mg/kg] | minimal effective dose [2, 5] [mg/kg] | ED50 [3] [mg/kg] | Mouse Metrazol (ED50, mg/kg) ip [1] [mg/kg] | Rat Conflict (MED, mg/kg) po ([2]; po) [mg/kg] | Mouse Metrazol (ED50, mg/kg) po [3] | minimal effective dose [2, 6] [mg/kg]
13 | COCCN1C2=C(C(=O)Nc3ccccc3F)C(=O)CCN2c2ccc(Cl)cc21 [Compound 147] | 2.49 | < 1 | > 10 | ~5 | – | – | – | –
14 | COCCN1C2=C(C(=O)Nc3ccccc3F)C(=O)CCN2c2ccc(F)c(F)c21 [Compound 149] | 1.08 | < 1 | > 10 | 3 | – | – | – | –
15 | CC(C)OCCN1C2=C(C(=O)Nc3ccccc3F)C(=O)CCN2c2ccc(F)cc21 [Compound 150] | 0.32 | < 1 | 10 | 1 | – | – | – | –
16 | COCCN1C2=C(C(=O)Nc3c(F)cccc3F)C(=O)CCN2c2ccccc21 [Compound 151] | 4.64 | < 1 | 10 | ~2 | – | – | – | –
17 | CCOCCCN1C2=C(C(=O)Nc3ccccc3F)C(=O)CCN2c2ccc(F)cc21 [Compound 152] | 0.28 | < 1 | 1 | ~0.3 | – | – | – | –
18 | CCOC(CCN1C2=C(C(=O)Nc3ccccc3F)C(=O)CCN2c2ccc(F)cc21)OCC [Compound 154] | 6.98 | < 1 | 3 | ~3 | – | – | – | –
19 | COCCN1C2=C(C(=O)Nc3nccs3)C(=O)CCN2c2ccc(F)cc21 [Compound 155] | 6.13 | – | – | – | <1 | 3 | ca. 1.5 mg/kg | –
20 | COCCN1C2=C(C(=O)Nc3ccc(Cl)cc3)C(=O)CCN2c2ccccc21 [Compound 156] | 16 | < 1 | 1 | ~2 | – | – | – | –
21 | CCOCN1C2=C(C(=O)Nc3ccccc3F)C(=O)CCN2c2ccc(Cl)cc21 [Compound 157] | 0.48 | < 1 | > 10 | ~2 | – | – | – | –
22 | COCCOCN1C2=C(C(=O)Nc3ccccc3F)C(=O)CCN2c2ccc(F)cc21 [Compound 159] | 0.8 | 0.003 | 3 | 0.1 | – | – | – | < 10
23 | COCCN1C2=C(C(=O)Nc3ccccc3F)C(=O)CCN2c2ccc(F)cc21 [Compound 163] | 0.61 | 0.01 | 0.1 | 0.2 | – | – | – | < 10
24 | CC1(C)OCC(CN2C3=C(C(=O)Nc4ccccc4F)C(=O)CCN3c3ccc(F)cc32)O1 (stereo not shown) [Compound 164] | 2.75 | 0.1 | 10 | 1 | – | – | – | < 10
25 | O=C1CCN2C(=C1C(=O)Nc1ccccc1F)N(COCc1ccccc1)c1cc(F)ccc12 [Compound 167] | 0.26 | < 1 | > 10 | < 30 | – | – | – | > 10
26 | CCOCN1C2=C(C(=O)Nc3ccccc3F)C(=O)CCN2c2ccc(F)cc21 [Compound 172] | 0.14 | 0.01 | 0.3 | 0.1 | – | – | – | ≤ 10
27 | CC(C)(C)OC(=O)CN1C2=C(C(=O)Nc3ccccc3F)C(=O)CCN2c2ccc(F)cc21 [Compound 176] | 56.2 | > 1 | > 10 | > 30 | – | – | – | –
28 | O=C(Nc1c(F)cccc1F)OCCN1C2=C(C(=O)Nc3c(F)cccc3F)C(=O)CCN2c2ccc(F)cc21 [Compound 179] | 7.65 | 10 | – | > 30 | – | – | – | > 10
29 | CC1(CN2C3=C(C(=O)Nc4ccccc4F)C(=O)CCN3c3ccc(F)cc32)COC1 [Compound 180] | 18 | 1 | > 10 | > 30 | – | – | – | –
